Reference: article PMC8763243, “Synthesis of Novel Suramin Analogs With Anti-Proliferative Activity via FGF1 and FGFRD2 Blockade” (Frontiers in Chemistry, 2022)
Several values for one entry are separate records, joined by “and”; a condition that tells them apart may be missing. Equal values may be shown once.

Legend:
[1] = target: T1, FGF1 (Homo sapiens, UniProt P05230); test: Fluorescence spectroscopy binding constant of FGF1 and suramin derivatives; details: fluorescence quenching, 5 µM FGF1, non-linear regression with Stern–Volmer equation, pH 6.5
T1 construct: made in house
T1 sequence (P05230 whole entry): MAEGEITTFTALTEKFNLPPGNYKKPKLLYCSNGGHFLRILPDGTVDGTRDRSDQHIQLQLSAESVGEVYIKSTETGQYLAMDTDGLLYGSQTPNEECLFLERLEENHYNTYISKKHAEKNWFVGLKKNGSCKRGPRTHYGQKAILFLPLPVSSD
Experimental: The binding constant Kd was calculated for FGF1 and the five derivatives in a buffer containing 10% D2O, 50 mM AMS, 20 mM phosphate buffer, and 50 mM NaCl at pH 6.5 using an F-2500 Hitachi fluorescence spectrophotometer.
[…] has tremendous significance for biochemical application because it provides valuable knowledge about the probability of quencher activity. The anti-mitogenic activity of the five compounds was achieved by the same mechanism in which suramin inhibits the mitogenic activity of FGF1. A non-linear regression curve was plotted for the relative intensities of activity versus drug concentration using the Stern–Volmer equation (Eq. 1). log(F0−F)/F=logK+nlog[Q], (1)
where F0 represents the fluorescence intensity in the absence of the compounds, and F represents the fluorescence intensity in the presence of the [Q] concentration of the compounds.
Increasing concentrations of these five suramin derivatives were added to a solution containing 5 µM FGF1. A reduction in the fluorescence intensity was reported for all five suramin derivatives. The Stern–Volmer equation was used to calculate the binding constant between FGF1 and compounds 14, 15, 17, 18, and 21 for relative intensities versus the total concentration in a non-linear regression curve.

[2] = test system: MCF-7 cells; test: WST-1 assay, cytotoxicity in tumorigenic cells; format: cell-based, human; details: for Mean (Blank 450) / Fold (mean) / Blank 450 / Fold: S8; for Fold (mean): relative to control; for Blank 450: single replicate absorbance; for Fold: single replicate relative to control; for cytotoxicity compared with suramin: MCF-7 cells, 1-100 µM, 48 h, especially at concentrations higher than 10 µM
Experimental: (§1) The water-soluble tetrazolium salt (WST-1) assay was performed to assess the effects of the compounds on cell proliferation and cytotoxicity. DMEM/F12 containing 10% FBS was used for the cell culture, and incubation was performed in 5% CO2 till the logarithmic growth phase was achieved. On the day before the experiment, the cells were trypsinized and seeded in a 96-well plate at a density of 5000 cells/well. For the FGF1-stimulated cell proliferation assay, the cells were then incubated for 24 h in a serum-free medium containing 0.1% bovine serum albumin (BSA). Serum-starved cells with or without a specified concentration of suramin, 14, 15, 17, 18, 21, and FGFRD2 were stimulated with 100 nM of FGF1 again for 48 h. For the purpose of the cytotoxicity assay, the cells were treated with an increased concentration of suramin and compounds 14, 17, 15, 18, and 21 (Figure 6) for 48 h. Also, 1/10 of the volume of WST-1 cell reagent was inserted in every well and maintained at 37°C for another 4 h before harvesting. There was gentle agitation of the medium in the cell culture plate for 10 min using a shaker. A Synergy 2 microplate reader (BioTek Instruments, Inc., VT, United States) was used to measure the absorbance at 450 nm. The relative absorbance was compared with the control treatment to determine the relative cell number.
(§2) […] […] The reason for the higher cytotoxicity was the presence of methyl groups on the suramin structure ([Martello et al., 2001]).
(§3) Suramin-induced neuropathy may depend on the effects on calcium (Ca^2+) homeostasis as a potential pathological mechanism, and the full or partial positive charge of the element when directly attached to the ring at each of the sulphonic groups (HSO3). These interactions exert a moderate to strong electron-withdrawing inductive effect, which may be responsible for the observed suramin cytotoxicity ([Prasetyaningrum et al., 2018]; [Von Der Ahe et al., 2018]). The cytotoxicity of the synthesized analogs was lower as there were methyl groups and no sulfonic acid groups attached to the suramin backbone. The IC50 values of the synthesized compounds in MCF-7 breast cancer cells were analyzed using SigmaPlot software.

[3] = WST-1 assay, cytotoxicity in tumorigenic cells; format: cell-based, human; details: human; MCF-7 cells, 48 h, SigmaPlot; read-out: estimated IC50 (cytotoxicity)
Experimental: as §1, §2, §3

[4] = test system: MCF-7 cells; test: WST-1 assay, FGF1-stimulated cell proliferation; format: cell-based, human; details: serum-starved MCF-7, 100 nM FGF1, 100 nM, 500 nM and 1 µM of test substance, 48 h
Experimental: as §1
Cell proliferation was measured using the WST-1 assay. […]

[5] = WST-1 assay, cytotoxicity in normal breast epithelial cell line (non-tumorigenic); format: cell-based; details: human; non-tumorigenic MCF-10A cells; read-out: estimated IC50 (cytotoxicity)
Experimental: as §1
In order to gain some insight about the selectivity of the compounds between tumorigenic and non-tumorigenic cells, the cytotoxicity was also being evaluated against normal breast cell lines by examining the cytotoxicity of suramin and its derivatives, compounds 15, 18, and 21, in a normal breast epithelial cell line (non-tumorigenic), MCF-10A. […] Compared to their cytotoxicity in tumorigenic MCF-7 cells (Figure 6), the estimated IC50 values in MCF-10A were higher than those in MCF-7 cells. […] However, the estimated IC50 value of suramin and its derivatives in both non-tumorigenic MCF-10A and tumorigenic MCF-7 cells were over 100 μM. The effective concentrations of suramin and its derivatives to attenuate FGF1-stimulated cell proliferation in MCF-7 cells were around 1 μM (Figure 5), which is non-toxic concentration to both MCF-7 cells and MCF-10A cells. […] Therefore, in addition to the specificity of each drug, the selectivity of suramin and its derivatives to disrupt the FGF1/FGFR-mediated breast cancer growth might rely on the overexpression or amplification of FGFR2 in breast cancer cells, but not in normal cells, and the secreted FGF1 ligand by autocrine or paracrine effects from cancer cells or their surrounding stroma cells or adipocytes (tumor microenvironment). The statistical data for the cytotoxicity are shown in Supplementary Figure S8.

| Kd [1] [µM] | Structure (SMILES) | Mean (Blank 450) ([2]; 0.5 uM) | Mean (Blank 450) ([2]; 1 uM) | Fold (mean) ([2]; 1 uM) | Blank 450 ([2]; 1 uM) | Fold ([2]; 1 uM) | Mean (Blank 450) ([2]; 5 uM) | Fold (mean) ([2]; 5 uM) | Blank 450 ([2]; 5 uM) | Fold ([2]; 5 uM) | Mean (Blank 450) ([2]; 10 uM) | Fold (mean) ([2]; 10 uM) | Blank 450 ([2]; 10 uM) | Fold ([2]; 10 uM) | Mean (Blank 450) ([2]; 100 uM) | Fold (mean) ([2]; 100 uM) | Blank 450 ([2]; 100 uM) | Fold ([2]; 100 uM) | cytotoxicity compared with suramin [2] | IC50 at 48 h [3] [µM] | also measured |
| --- | --- | --- | --- | --- | --- | --- | --- | --- | --- | --- | --- | --- | --- | --- | --- | --- | --- | --- | --- | --- | --- |
| 13.7 | O=C(Nc1ccc(C(=O)Nc2cccc3cc(S(=O)(=O)O)ccc23)cc1)Nc1ccc(C(=O)Nc2cccc3cc(S(=O)(=O)O)ccc23)cc1 [Compound 14, Sodium 5,5'-((4,4'-(carbonylbis (azanediyl))bis (benzoyl))bis (azanediyl)) bis (naphthalene-2-sulfonate)] | 0.233 | 0.231 | 1.03 | 0.248 and 0.227 and 0.205 and 0.242 | 1.113 and 1.019 and 0.920 and 1.086 | 0.225 | 1.01 | 0.219 and 0.241 and 0.23 and 0.208 | 0.983 and 1.082 and 1.033 and 0.934 | 0.211 | 0.95 | 0.206 and 0.193 and 0.225 and 0.218 | 0.925 and 0.866 and 1.010 and 0.979 | 0.198 | 0.89 | 0.209 and 0.195 and 0.181 and 0.208 | 0.938 and 0.875 and 0.813 and 0.934 | less toxic | > 100 | Fold (mean) ([2]; 0.5 uM): 1.04; Blank 450 ([2]; 0.5 uM): 0.228 and 0.253 and 0.244 and 0.205; Fold ([2]; 0.5 uM): 1.024 and 1.136 and 1.095 and 0.920; effect on FGF1-stimulated cell proliferation [4]: more potent inhibitory effects |
| 10.1 | O=C(Nc1ccc(C(=O)Nc2ccc(C(=O)Nc3cccc4cc(S(=O)(=O)O)ccc34)cc2)cc1)Nc1ccc(C(=O)Nc2ccc(C(=O)Nc3cccc4cc(S(=O)(=O)O)ccc34)cc2)cc1 [Compound 17, Sodium 5,5'-((4,4'-((4,4'-(carbonylbis (azanediyl))bis (benzoyl))bis (azanediyl))bis (benzoyl))bis(azanediyl)) bis (naphthalene-2-sulfonate)] | 0.233 | 0.226 | 1.01 | 0.235 and 0.232 and 0.211 and 0.225 | 1.055 and 1.042 and 0.947 and 1.010 | 0.222 | 1.00 | 0.201 and 0.215 and 0.233 and 0.239 | 0.902 and 0.965 and 1.046 and 1.073 | 0.220 | 0.99 | 0.218 and 0.227 and 0.225 and 0.209 | 0.979 and 1.019 and 1.010 and 0.938 | 0.208 | 0.93 | 0.197 and 0.209 and 0.218 and 0.206 | 0.884 and 0.938 and 0.979 and 0.925 | less toxic | > 100 | Fold (mean) ([2]; 0.5 uM): 1.04; Blank 450 ([2]; 0.5 uM): 0.241 and 0.231 and 0.216 and 0.243; Fold ([2]; 0.5 uM): 1.082 and 1.037 and 0.970 and 1.091; effect on FGF1-stimulated cell proliferation [4]: more potent inhibitory effects |
| 15.9 | O=C(Nc1ccc(C(=O)Nc2cc(S(=O)(=O)O)cc3cc(S(=O)(=O)O)cc(S(=O)(=O)O)c23)s1)Nc1ccc(C(=O)Nc2cc(S(=O)(=O)O)cc3cc(S(=O)(=O)O)cc(S(=O)(=O)O)c23)s1 [Compound 21, Sodium 8,8'-((5,5'-(carbonylbis (azanediyl))bis (thiophene-5,2-diyl-2-carbonyl))bis (azanediyl)) bis (naphthalene-1,3,6-trisulfonate)] |  | 1.167 | 1.00 | 1.107 and 1.215 and 1.169 and 1.177 | 0.950 and 1.043 and 1.003 and 1.010 | 1.178 | 1.01 | 1.145 and 1.151 and 1.183 and 1.233 | 0.983 and 0.988 and 1.015 and 1.058 | 1.163 | 1.00 | 1.136 and 1.167 and 1.187 and 1.163 | 0.975 and 1.002 and 1.019 and 0.998 | 1.021 | 0.88 | 1.046 and 1.075 and 0.916 | 0.898 and 0.923 and 0.786 | less toxic | > 100 | Mean (Blank 450) ([2]; 50 uM): 1.124; Fold (mean) ([2]; 50 uM): 0.96; Blank 450 ([2]; 50 uM): 1.137 and 1.128 and 1.113 and 1.119; Fold ([2]; 50 uM): 0.976 and 0.968 and 0.955 and 0.960; IC50 at 48 h [5]: 628 ± 1.45 µM |
|  | Cc1ccc(C(=O)Nc2ccc(S(=O)(=O)O)c3cc(S(=O)(=O)O)cc(S(=O)(=O)O)c23)cc1NC(=O)c1cccc(NC(=O)Nc2cccc(C(=O)Nc3cc(C(=O)Nc4ccc(S(=O)(=O)O)c5cc(S(=O)(=O)O)cc(S(=O)(=O)O)c45)ccc3C)c2)c1 [suramin] |  | 1.211 | 1.04 | 1.289 and 1.186 and 1.173 and 1.197 | 1.106 and 1.018 and 1.007 and 1.027 | 1.160 | 1.00 | 1.137 and 1.217 and 1.147 and 1.138 | 0.976 and 1.044 and 0.984 and 0.977 | 1.116 | 0.96 | 1.187 and 1.064 and 1.159 and 1.052 | 1.019 and 0.913 and 0.995 and 0.903 | 0.817 | 0.70 | 0.795 and 0.82 and 0.838 and 0.816 | 0.682 and 0.704 and 0.719 and 0.700 | highest among all the analogs | > 100 | Mean (Blank 450) ([2]; 50 uM): 1.004; Fold (mean) ([2]; 50 uM): 0.86; Blank 450 ([2]; 50 uM): 0.936 and 0.988 and 1.088 and 1.004; Fold ([2]; 50 uM): 0.803 and 0.848 and 0.934 and 0.862; IC50 at 48 h [5]: 222 ± 2.4 µM |
